Experimental data from patent US20110097380A1, “CLONIDINE FORMULATIONS HAVING ANTIMICROBIAL PROPERTIES” (Warsaw Orthopedic, Inc., priority 2009, published 2011).

Experiments:
Experiment in all cases: Film inoculated on Tryptic Soy Agar plate: growth, zone of inhibition, scraping/streak
Type in all cases: cell-based
Conditions in all cases: after 4 days
[1] = tested on: Candida albicans ATCC 10231
Procedure: (§1) Each film sample was individually placed on the surface of a Tryptic Soy Agar (TSA) plate in an aseptic manner. Each film was individually inoculated with 1 mL of one of the three (3) challenge organisms shown below. For each challenge organism, one “Sample Film” and one “Control Film” were inoculated. Due to the anticipated slow absorption of the challenge inoculum by the test samples, the inoculum was dispensed onto each film sample very slowly. After inoculation, each sample was carefully moved to incubation at the temperature range appropriate for the inoculated challenge organism and incubated for four (4) days. Each day of incubation, all plates were removed from incubation for visual and stereoscopic evaluation. Upon evaluation, the presence or absence of growth on the plate and/or on the sample was noted. In addition, the sample was evaluated for the presence or absence of a zone of inhibition around the sample. The presence or absence of a zone was reported as “Z” for Zone (size in mm) or “NZ” for no zone present. [table] Additional Test Information: • G=Growth • NG=No Growth • Z=Zone (in mm) • NZ=No Zone • Additional Information/Observations: At the conclusion of the testing period, all test samples were individually removed from the agar surface and gently shaken to remove any excess moisture remaining on the surface of the sample. The samples were then individually examined under the stereoscope by a laboratory technician. […] Following the documentation of the observations above, each sample was scraped with an inoculating loop on the inoculated, top side of each sample to determine whether macroscopic growth could be visually observed. […] The following is a summary of findings from this portion of the test: […]

[2] = tested on: Escherichia coli ATCC 8739
Procedure: as §1

[3] = tested on: Staphylococcus aureus ATCC 6538
Procedure: as §1

Clc1cccc(Cl)c1N=C1NCCN1 [clonidine, 2,6-dichloro-N-2-imidazolidinyldenebenzenamine]
inhibited growth: growth of fungus (C. albicans) [1] | growth of gram negative bacteria (E. coli) [2] | growth of gram positive bacteria (S. aureus) [3]
